From US5334761A, “Cationic lipids” (Life Technologies, Inc., priority 1992, dated 1994)

Assays:
[1] = tested on: NIH-3T3 cells; assay: CAT transient transfection; type: cell-based, mouse; conditions: for DNA transfection (in words): NIH-3T3; for CAT ACTIVITY: 2 μg pSV2CAT, 6 h OPTI MEM serum-free
Method: (§1) A one-to-one mixture (by weight) of the desired lipid and dioleylphosphatidyl ethanolamine was prepared in CHCl3. The CHCl3 was removed on the rotary evaporator to obtain a thin film of lipid mixture. The mixture was hydrated with enough water to obtain approximately 1.25 mg of lipid per ml of solution. The solution was passed through a microfluidizer twice and diluted to 1 mg/ml. The liposome formulation was then filtered through a 0.2 μ filter. Compound 8 was also formulated without DOPE either by sonication at 1 mg/ml in water or by dissolving a dried lipid film with ethanol and then adding water to give a final concentration of 2.5 mg/ml. Ethanol was 10% of that volume. In some instances, this was further diluted with water to 1 mg/ml, 4% ethanol.
(§2) Baby hamster kidney (BHK-21) , COS-7, HeLa-S3 cells, and normal human fibroblasts isolated from newborn foreskin dermis were grown in Dulbecco's-modified Eagle's medium (DMEM) containing 10% fetal bovine serum (FBS), 2 mM L-glutamine (gln), 0.1 mM MEM nonessential amino acids (NEAA), 100 U/ml penicillin, and 100 μg/ml streptomycin. NIH-3T3 cells were grown in DMEM containing 10% calf serum (CS), 2 mMgln, 0.1 mM NEAA 100 U/ml penicillin, and 100 μg/ml streptomycin. PC12 cells were grown in DMEMcontaining 10% horse serum, 5% FBS, 2 mM gln, 0 1 mMNEAA, 100 U/ml penicillin and 100 μ/ml streptomycin. Jurkat cells (human lymphoid cell line) were grown in RPMI-1640 supplemented with 10% FBS, 2mML-glutamine, 100 U/ml penicillin, and 100 μg/ml streptomycin. Human keratinocytes were isolated from newborn foreskin epidermis and cultured in Keratinocyte Growth Medium (Clonetics, San Diego, Ca.). All cell lines were maintained in a humidified incubator with a 5% CO2 atmosphere at 37° C.
(§3) pSV2CAT (5.0 Kb) was described previously (Gorman, C. M. et al. (1982) Mol. Cell. Biol. 2:1044). pCMVCAT (5.0 Kb) was also described previously (Foecking M. K. and Hofstetter, H. (1986) Gene 45:101). Plasmid DNA was purified by isopycnic centrifugation in CsCl/EtBr gradients after recovery by alkaline lysis (Maniatis, T. et al. (1982) in Molecular Cloning: A Laboratory Manual, Cold Spring Harbor Laboratory, Cold Spring Harbor, N.Y., pp. 90-91).
(§4) For transient transfection of pSV2CAT DNA or pCMVCAT DNA, cells were plated in 6-well tissue culture dishes (35 mm wells) and incubated overnight to approximately 60% confluency. To transfect cells in one well, 1-2 μg of pSV2CAT DNA or pCMVCAT DNA was diluted in 100 μl Opti-MEM I. Cationic lipids were diluted separately in another 100 μl aliquot of Opti-MEM I. The two solutions were then mixed in a polystyrene tube, incubated for 10-15 min at room temperature to allow the formation of a DNA-liposome complex, and diluted to one ml by adding 0.8 ml Opti-MEM I or DMEM containing 5% fetal bovine serum (FBS), 2 mMgln, 0.1 mMNEAA, and lacking antibiotics. The cells were washed once with Opti-MEM I or serum-free DMEM, and the DNA-liposome complex was added directly to the cells. After a six hr incubation at 37° C., the transfection complexes were removed and two ml of DMEM containing 10% FBS, 2 mMgln, 0.2 mMNEAA, 100 U/ml penicillin, and 100 μg/ml streptomycin, was added to each well. Note: human keratinocytes were cultured and transfected in Keratinocyte Growth Medium. Cells were incubated for an additional 48 hrs and lysed in situ by freeze-thawing once or twice in 300 μl 0.1M Tris-HC1, pH 7.8-8.0 containing 0 1% Triton X-100. Cell lysates were assayed for CAT activity.
(§5) Cell lysates were assayed for CAT activity as described by Neumann et al. (1987) BioTechniques 5:444 using [^14 C]-butyryl coenzyme A (New England Nuclear, Boston, Mass.). The enzyme reactions were incubated for 2 hrs at 37° C., overlayed with 3.0 ml Econofluor (New England Nuclear) and then incubated for an additional 2 hrs to allow diffusion of the acetylated chloramphenicol into the scintillation fluid. CAT activity was determined by measuring radioactivity in a liquid scintillation counter. […]

[2] = % protein (toxicity estimate, Bradford) after transfection; type: cell-based, mouse; conditions: mouse, nih-3t3 cells; 16 μg lipid; 2 μg pSV2CAT; 6 h OPTI MEM serum-free
Method: as §1
(§6) Baby hamster kidney (BHK-21) , COS-7, HeLa-S3 cells, and normal human fibroblasts isolated from newborn foreskin dermis were grown in Dulbecco's-modified Eagle's medium (DMEM) containing 10% fetal bovine serum (FBS), 2 mM L-glutamine (gln), 0.1 mM MEM nonessential amino acids (NEAA), 100 U/ml penicillin, and 100 μg/ml streptomycin. […]
(§7) The "% protein" column indicates the relative amount of protein in the sample tested for CAT activity and therefore provides a way to estimate toxicity of the compounds being tested. […] Protein was measured using a commercially available Bradford protein assay (BioRad Laboratories, Richmond, Ca.). […]

[3] = tested on: HeLa-S3 cells; assay: CAT transient transfection; type: cell-based; conditions: for CAT ACTIVITY: 2 μg pSV2CAT, 6 h
Method: as §1, §2, §3, §4, §5

[4] = tested on: normal human keratinocytes; assay: CAT transient transfection; type: cell-based; conditions: for CAT ACTIVITY: 2 μg pSV2CAT, 6 h, 50 μl of 300 μl assayed; for DNA transfection (in words): keratinocytes
Method: as §1, §2, §3, §4, §5

[5] = % protein (toxicity estimate, Bradford) after transfection; type: cell-based, human; conditions: human, keratinocytes, 2 μg pSV2CAT, 6 h
Method: as §1
as §2, with “C. […]” for “C.”
as §7

[6] = tested on: Jurkat cells; assay: CAT transient transfection; type: cell-based, human; conditions: pSV2CAT, 6 h OPTIMEM
Method: as §1, §2, §3
(§8) For transient nuclear expression of pSV2CAT or pCMVCAT in Jurkat cells, cells were washed with Opti-MEM I or serum-free RPMI 1640 containing 2 mM gln and plated in six-well plates at a density of 3×10^6 cells per well in 0.8 ml Opti-MEM I or RPMI 1640. For each transfection, 5 μg pSV2CAT DNA or 2 μg pCMVCAT DNA was diluted in 100 μl Opti-MEM I. Lipids were diluted separately in another 100 μl aliquot of Opti-MEMI. The two solutions were then mixed in a polystyrene tube and incubated for 10-15 min at room temperature. The DNA-liposome complex was added to the cell suspensions and incubated 6 hours at 37° C., after which 4 ml growth medium were added per well (RPMI-1640; 10% FBS). Phorbol myristate acetate (Sigma Chemical Co., St. Louis, Mo.) and phytohemagglutinin (Sigma) were also added to a final concentration of 50 ng/ml and 1 μg/ml, respectively, to activate the cells. Cells were harvested at approximately 48 hours post-transfection by centrifugation. Cell lysates were prepared by resuspending cell pellets at 0° C. in 0.1 M Tris-HC1 pH 8.0 containing 0.1% Triton X-100 and freeze-thawing once. Cell lysates were cleared by centrifugation and assayed for CAT activity.
as §5

[7] = % protein (toxicity estimate, Bradford) after transfection; type: cell-based, human; conditions: human, jurkat cells, pSV2CAT, 6 h OPTIMEM
Method: as §1, §2, §8
The "% protein" column indicates the relative amount of protein in the sample tested for CAT activity and therefore provides a way to estimate toxicity of the compounds being tested. The "CAT Activity" column indicates the relative transfection effectiveness of the lipid formulation in the various cell lines. The control sample was a cell culture grown under similar conditions as those that were transfected, but with no DNA or cationic lipid added. Protein was measured using a commercially available Bradford protein assay (BioRad Laboratories, Richmond, Ca.).
Jurkat cells (3 × 10^6 cells) were transfected in OPTIMEM with
μg of pSV2CAT DNA for 6 hours.
DNA-lipid complexes were made in OPTIMEM. Jurkat cells (3 × 10^
cells) were transfected in RPMI1640 with 2 μg of pCMVCAT DNA for 6

[8] = as above; type: cell-based; conditions: human, hela-s3 cells, 2 μg pSV2CAT
Method: as §1, §6, §7

[9] = tested on: some cell lines; conditions: cited from earlier work; for transfection efficiency relative to DOTMA: some cell lines; for transfection / delivery of nucleic acids: lipid aggregates or liposomes
[10] = tested on: some cell lines; conditions: cited from earlier work

CCCCCCCC/C=C\CCCCCCCCOCC(C[N+](C)(C)CCN)OCCCCCCCC/C=C\CCCCCCCC (stereo not drawn) [Compound 2, 1-Propanaminium, N-(2-amino)ethyl-N,N-dimethyl-2,3-bis(9-octadecenyloxy)-bromide]
DNA transfection (in words) [1]: good activity

CCCCCCCC/C=C\CCCCCCCCOCC(C[N+](C)(C)CCBr)OCCCCCCCC/C=C\CCCCCCCC (stereo not drawn) [Compound 3, 1-Propanaminium, N-[2-(2-bromo)ethyl]-N,N-dimethyl-2,3-bis(9-octadecenyloxy)-,bromide]
CAT ACTIVITY ([1]; 16 μg lipid): 6,074 CPM
DNA transfection (in words) [1]: good activity
viability at 6 h [2]: 35%
CAT ACTIVITY ([3]; 6 μg lipid, DMEM, 5% FBS): 78,798 CPM
CAT ACTIVITY ([3]; 12 μg lipid, OPTIMEM I, 0% FBS): 29,400 CPM
DNA transfection (in words) ([3]; HeLa-S3, presence or absence of serum): good activity
CAT ACTIVITY ([4]; 10 μg lipid): 10,598 CPM
viability at 6 h ([5]; 10 μg lipid): 42%
CAT ACTIVITY ([6]; 30 μg lipid): 3008 CPM/150 μl
viability at 6 h ([7]; 30 μg lipid): 97%
viability at 6 h ([8]; 6 μg lipid, DMEM, 5% FBS): 54%
viability at 6 h ([8]; 12 μg lipid, OPTIMEM I, 0% FBS): 43%

CCCCCCCC/C=C\CCCCCCCCOCC(C[N+](C)(C)CCNCCCN)OCCCCCCCC/C=C\CCCCCCCC (stereo not drawn) [Compound 4, 1-Propanaminium, N-[2-[(3-aminopropyl)amino]ethyl]-N,N-dimethyl-2,3-bis(9-octadecenyloxy)-, bromide]
CAT ACTIVITY ([1]; 24 μg lipid): 3,114 CPM
CAT ACTIVITY ([4]; 40 μg lipid): 20,038 CPM
DNA transfection (in words) [4]: effective
viability at 6 h ([5]; 40 μg lipid): 41%
CAT ACTIVITY ([6]; 20 μg lipid): 2252 CPM/150 μl
CAT ACTIVITY ([6]; 30 μg lipid): 820 CPM/150 μl
viability at 6 h ([7]; 20 μg lipid): 93%
viability at 6 h ([7]; 30 μg lipid): 100%

CCCCCCCC/C=C\CCCCCCCCOCC(C[N+](C)(C)CCNCCCNCCCCNCCCN)OCCCCCCCC/C=C\CCCCCCCC (stereo not drawn) [Compound 5, 1-Propanaminium,N-{2-[[3-[[4-[(3-aminopropyl)amino]butyl]-amino]propyl]amino]ethyl}-n,n-dimethyl-2,3-bis-(9-octadecenyloxy)-, bromide]
DNA transfection (in words) [4]: effective
CAT ACTIVITY ([6]; 20 μg lipid): 1170 CPM/150 μl
viability at 6 h ([7]; 20 μg lipid): 100%

CC(C)CCC[C@@H](C)[C@H]1CC[C@H]2[C@@H]3CC=C4C[C@@H](OC(=O)NCCN(C)C)CC[C@]4(C)[C@H]3CC[C@]12C [DC-Chol]
transfection efficiency relative to DOTMA [9]: more efficient transfection
toxicity relative to DOTMA [10]: lower toxicity

CCCCCCCCCCCCCCCCCCN(CCCCCCCCCCCCCCCCCC)C(=O)CNC(=O)C(CCCNCCCN)NCCCN (stereo not drawn) [DOGS, 5-carboxyspermylglycine dioctadecylamide]
transfection / delivery of nucleic acids [9]: efficient transfection
transfection efficiency relative to DOTMA [9]: more efficient
toxicity relative to DOTMA [10]: less toxic

CCCCCCCC/C=C\CCCCCCCCOCC(C[N+](C)(C)C)OCCCCCCCC/C=C\CCCCCCCC (stereo not drawn) [DOTMA]
transfection / delivery of nucleic acids [9]: efficient delivery of nucleic acids to some types of cells

CCCCCCCCCCCCCCCC(=O)OCC(COP(=O)(O)OCCNC(=O)C(CCCNCCCN)NCCCN)OC(=O)CCCCCCCCCCCCCCC (stereo not drawn) [DPPES, dipalmitoylphosphatidylethanolamine 5-carboxyspermylamide]
transfection / delivery of nucleic acids [9]: efficient transfection
transfection efficiency relative to DOTMA [9]: more efficient
toxicity relative to DOTMA [10]: less toxic
